As usually defined, the EC50 is the concentration giving half of the maximal effect. A lower EC50 goes with an effect from little substance.

The test system of experiment [1] is primary rat cortical cultures. The experiment can be described thus: Neutral red (NR) uptake cytotoxicity assay. The settings on record: for Bottom (baseline, % control) / Top (maximal cell death, % control): fitted NR curve, primary rat cortical neurons, 24 h; for EC50: primary rat cortical cultures, 24 h of exposure, mean (95% CI). It counts as cell-based. As for the experimental part:
Female Wistar rats were obtained from Charles River Laboratories. The animals were allowed free access to rat chow and water, being maintained on a 12 h/12 h light/dark cycle, under controlled temperature (20 ± 2 °C) and humidity (40–60%). Primary cortical cultures were prepared as previously described. Briefly, for embryo collection, the pregnant female Wistar rats were anesthetized with isoflurane and subsequently administered ketamine and xylazine (200 + 100 μL, intraperitoneal). At the end of the dissection procedures, the female rat was euthanized with the administration of sodium pentobarbital ([…]). The embryos were used between embryonic day 16 (E16) and E19, considering the mating day as E0. The embryos were dissected from the uterus, and the heads were decapitated and placed in ice-cold 0.1 M PBS supplemented with 0.6% (w/v) glucose. The cortex dissection was performed under a Zeiss stereo microscope (Stemi DV4). Following trypsinization (0.05% trypsin/EDTA) and DNAse I treatment, the tissue pieces were mechanically dissociated, and the cells seeded in freshly prepared neurobasal medium (supplemented with 2% B-27, 100 U/mL of penicillin, 100 μg/mL of streptomycin, and 1% GlutaMAX^TM supplement) at a density of 150,000 cells/cm^2 in 96-well plates precoated, overnight, with 0.05 mg/mL PLL solution (prepared in 0.1 M borate buffer, pH 8.5). The cultures were maintained at 37 °C in a 5% CO2 air atmosphere. The medium was renewed at 4 days in vitro (DIV) by replacing half of the volume with fresh medium, and the cultures were used at 8 DIV.
The differentiated SH-SY5Y cells (25,000 cells/cm^2) and primary rat cortical cultures (150,000 cells/cm^2) were seeded onto 96-well plates as previously described.
Accordingly, 6 days after seeding (differentiated SH-SY5Y cells) or at 8 DIV (primary cultures), the cells were exposed, for 24 h (37 °C, 5% CO2), to different concentrations of the drugs (0–1000 µM). Thus, the tested concentrations ranged from 0 to 1000 µM for 2C-T-2 and 2C-T-4; 0 to 500 µM for 2C-T-7; 0 to 250 µM for 25T2-NBOMe, and 0 to 100 µM for 25T4-NBOMe and 25T7-NBOMe.
The NR uptake assay is based on the detection of viable cells through the incorporation of the NR dye by the cell’s lysosomes. In brief, after 24 h of exposure to the tested drugs, the differentiated SH-SY5Y cells and primary rat cortical cultures were incubated with NR (50 µg/mL in complete medium) for 90 or 210 min, respectively, at 37 °C, in a 5% CO2-95% air atmosphere. To extract the absorbed dye, an acidified ethanol solution was used, and the absorbance was then measured at 540 nm in a multi-well plate reader (PowerWaveX, BioTek Instruments, Winooski, VT, USA). The cytotoxicity was estimated by the percentage of NR uptake relative to the control cells, and a minimum of 4 independent experiments were conducted in triplicate.

Experiment [2] has as its system differentiated SH-SY5Y cells. Put plainly: Total glutathione (tGSH) levels, DTNB-GSH recycling assay. The settings on record: control 100.0%. In kind it is cell-based, human. The text has this: Glutathione has a critical role in cellular physiology, playing multiple essential roles in maintaining cellular health and function, including antioxidant defense, detoxification, and cellular signaling. The 5,5′-dithiobis(2-nitrobenzoic acid) (DTNB)-GSH recycling assay was used to measure total GSH (tGSH), which includes the reduced (GSH) and oxidized (GSSG) forms of glutathione. The assay relies on the reaction of GSH with DTNB, producing the yellow-colored 5-thio-2-nitrobenzoic acid (TNB). Thus, the TNB generated is directly proportional to the amount of GSH present in the sample [31].
Thus, the SH-SY5Y cells were seeded onto 6-well plates (25,000 cells/cm^2) following the previously described seeding and differentiation protocol. On the day of the experiment, the cells were exposed to different concentrations of the tested drugs (EC20 and EC50) for 24 h (37 °C, 5% CO2). At the end of the incubation period, the cells were centrifuged (5 min, 250 g, 4 °C). For the analysis of extracellular GSH levels, the supernatants were collected, and proteins precipitated with 30% HClO4 for at least 30 min (4 °C). For the analysis of intracellular GSH levels, after collecting the supernatants, the cells were treated with 5% HClO4 for at least 30 min (4 °C). Subsequently, the acidic samples were collected from the plates and centrifuged (5 min, 16,000× g, 4 °C), and the supernatants were stored until further analysis (−80 °C). To assess protein content, the pellets were resuspended in 1M NaOH, maintained at 4 °C overnight, and stored until further analysis (−20 °C). A Bio-Rad DC™ protein assay kit (Bio-Rad Laboratories, Hercules, CA, USA) was used to analyze protein content, in accordance with the manufacturer’s guidelines.
Before the tGSH quantification, the acidic samples were diluted (1:2) with 5% HClO4, and the diluted samples/standards were neutralized with an ice-cold KHCO3 solution (1:1) and centrifuged (5 min, 16,000× g, 4 °C).
Then, 100 µL of supernatant from each sample/standard was transferred into a 96-well plate and 65 µL of an extemporaneous reagent solution (0.68 mM NADPH and 3.96 mM DTNB prepared in a 7.5 pH phosphate buffer) was added to each well, and the plates were incubated for 15 min at 30 °C. After 15 min, 40 μL of a 10 U/mL glutathione reductase solution was added to each well and the formation of 5-thio-2-nitrobenzoic acid (TNB) was monitored every 10 s for 3 min (kinetic mode) at 415 nm in a multi-well plate reader (PowerWaveX, BioTek Instruments, Winooski, VT, USA).
The GSH levels were standardized to protein content. The results are presented as a percentage relative to the control cells (0 µM). A minimum of 6 independent experiments were conducted, in duplicate.
Glutamate/cysteine ligase (GCL), also recognized as gamma-glutamylcysteine synthetase (γ-GCS), is a key enzyme in the first step of glutathione biosynthesis, as it catalyzes the reaction between glutamate and cysteine to produce γ-glutamylcysteine. […] The SH-SY5Y cells were seeded onto 6-well plates (25,000 cells/cm^2) following the previously described seeding and differentiation protocol. On the day of the experiment, the cells were incubated with BSO (100 µM) for 24 h (37 °C, 5% CO2) and the quantification of GSH intracellular levels was achieved according to the previously described method in Section 2.11.

Consider `CCSc1cc(OC)c(CCN)cc1OC.Cl` [2C-T-2, 2-(4-(ethylthio)-2,5-dimethoxyphenyl)ethan-1-aminium chloride], for which, in experiment [1], the “Bottom (baseline, % control)” value is reported as 1.639 % control; the “Top (maximal cell death, % control)” value is given as 83.85 % control; a half-maximal response (EC50) required 216 µM. In addition, in experiment [2] (drug at its EC20, 24 h), the “intracellular tGSH levels, % of control cells” value (shortened to “intracellular tGSH levels, %”) is recorded as 87.0%. Further, the “intracellular tGSH levels, %” value in experiment [2] (drug at its EC50, 24 h) was found to be 80.0%.
The corresponding values for `COc1cc(SC(C)C)c(OC)cc1CCN.Cl` [2C-T-4, 2-(4-(isopropylthio)-2,5-dimethoxyphenyl)ethan-1-aminium chloride] are 0.7855 % control, 82.56 % control, 110 µM, 81.4% and 75.8%.
On to `CCCSc1cc(OC)c(CCN)cc1OC.Cl` [2C-T-7, 2-(2,5-dimethoxy-4-(propylthio)phenyl)ethan-1-aminium chloride], for which, in experiment [1], the “Bottom (baseline, % control)” value is given as 1.452 % control; the “Top (maximal cell death, % control)” value is recorded as 84.63 % control; the half-maximal effective concentration (EC50) was 73.6 µM. In addition, in experiment [2] (drug at its EC20, 24 h), the “intracellular tGSH levels, %” value was found to be 84.2%. Besides, the “intracellular tGSH levels, %” value in experiment [2] (drug at its EC50, 24 h) is given as 82.4%.
For `CCSc1cc(OC)c(CCNCc2ccccc2OC)cc1OC.Cl` [25T2-NBOMe, 2-(4-(ethylthio)-2,5-dimethoxyphenyl)-N-(2-methoxybenzyl)ethan-1-aminium chloride], in experiment [1], the “Bottom (baseline, % control)” value came out at 3.637 % control; the “Top (maximal cell death, % control)” value is reported as 81.45 % control; the half-maximal effective concentration (EC50) was determined as 26.5 µM. For the same molecule, the “intracellular tGSH levels, %” value in experiment [2] (drug at its EC20, 24 h) was found to be 54.4%. Moreover, the “intracellular tGSH levels, %” value in experiment [2] (drug at its EC50, 24 h) came out at 49.2%.
The corresponding values for `COc1cc(SC(C)C)c(OC)cc1CCNCc1ccccc1OC.Cl` [25T4-NBOMe, 2-(4-(isopropylthio)-2,5-dimethoxyphenyl)-N-(2-methoxybenzyl)ethan-1-aminium chloride] are 2.059 % control, 83.51 % control, 19.9 µM, 71.2% and 60.3%.
The like results for `CCCSc1cc(OC)c(CCNCc2ccccc2OC)cc1OC.Cl` [25T7-NBOMe, 2-(2,5-dimethoxy-4-(propylthio)phenyl)-N-(2-methoxybenzyl)ethan-1-aminium chloride] were, in that order, 3.972 % control, 82.95 % control, 14.4 µM, 72.2% and 52.0%.

Values taken from article PMC11204507, “Mechanistic Insights into the Neurotoxicity of 2,5-Dimethoxyphenethylamines (2C) and Corresponding N-(2-methoxybenzyl)phenethylamine (NBOMe) Drugs” (Journal of Xenobiotics, 2024).
